Test results reported in PubChem BioAssay (NCI).
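Grown in 96-well plates, cells were treated for 48 hours with each compound at five concentrations. Insufficient inhibition: endpoint recorded as highest concentration tested. GI50: concentration for 50% inhibition of growth. TGI marks complete inhibition of growth.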

What was measured:
Assay in all cases: NCI tumour cell line growth inhibition, 48 h
[1] = system: SK-OV-3 ovarian
[2] = system: RXF 393 renal
[3] = system: HL-60(TB) leukemia
[4] = system: MCF7 breast
[5] = system: KM12 colon
[6] = system: PC-3 prostate
[7] = system: RPMI-8226 leukemia
[8] = system: UACC-257 melanoma
[9] = system: SK-MEL-2 melanoma
[10] = system: HCT-116 colon
[11] = system: SNB-19 CNS
[12] = system: OVCAR-5 ovarian
[13] = system: SF-539 CNS
[14] = system: A498 renal
[15] = system: NCI-H460 lung
[16] = system: CCRF-CEM leukemia
[17] = system: NCI-H23 lung
[18] = system: SF-295 CNS
[19] = system: NCI-H522 lung
[20] = system: SK-MEL-28 melanoma
[21] = system: HOP-92 NSCLC
[22] = system: U251 CNS
[23] = system: HCT-15 colon
[24] = system: HOP-62 NSCLC
[25] = system: ACHN renal
[26] = system: UO-31 renal
[27] = system: MDA-MB-468 breast
[28] = system: NCI-H226 lung
[29] = system: MDA-MB-231 breast
[30] = system: SN12C renal
[31] = system: OVCAR-4 ovarian
[32] = system: HCC-2998 colon
[33] = system: HT29 colon
[34] = system: OVCAR-3 ovarian
[35] = system: IGROV1 ovarian
[36] = system: SR leukemia
[37] = system: OVCAR-8 ovarian
[38] = system: CAKI-1 renal
[39] = system: UACC-62 melanoma
[40] = system: M14 melanoma
[41] = system: SW-620 colon
[42] = system: SK-MEL-5 melanoma
[43] = system: LOX IMVI melanoma
[44] = system: NCI/ADR-RES ovarian
[45] = system: DU-145 prostate
[46] = system: SF-268 CNS
[47] = system: BT-549 breast
[48] = system: A549 NSCLC
[49] = system: MALME-3M melanoma
[50] = system: TK-10 renal
[51] = system: MDA-MB-435
[52] = system: T-47D breast
[53] = system: MOLT-4 leukemia
[54] = system: 786-0 renal
[55] = system: SNB-75 CNS
[56] = system: COLO 205 colon
[57] = system: HS 578T breast
[58] = system: EKVX NSCLC

## O=C(NN1C(=O)/C(=C/C=C/c2ccc([N+](=O)[O-])o2)SC1=S)c1ccc([N+](=O)[O-])cc1
[1]
  GI50: 1910 nM
  TGI: 3810 nM
[2]
  GI50: 521 nM
  TGI: 1860 nM
[3]
  GI50: 1800 nM
  TGI: 6810 nM
[4]
  GI50: 363 nM
  TGI: 1690 nM
[5]
  GI50: 925 nM
  TGI: 2420 nM
[6]
  GI50: 1230 nM
  TGI: 3200 nM
[7]
  GI50: 344 nM
  TGI: 2110 nM
[8]
  GI50: 1440 nM
  TGI: 3210 nM
[9]
  GI50: 239 nM
  TGI: 785 nM
[10]
  GI50: 156 nM
  TGI: 332 nM
[11]
  GI50: 1460 nM
  TGI: 2810 nM
[12]
  GI50: 1440 nM
  TGI: 2750 nM
[13]
  GI50: 263 nM
  TGI: 745 nM
[14]
  GI50: 3280 nM
  TGI: 10900 nM
[15]
  GI50: 341 nM
  TGI: 1240 nM
[16]
  GI50: 262 nM
  TGI: 1050 nM
[17]
  GI50: 289 nM
  TGI: 916 nM
[18]
  GI50: 1700 nM
  TGI: 3180 nM
[19]
  GI50: 187 nM
  TGI: 376 nM
[20]
  GI50: 1100 nM
  TGI: 2400 nM
[21]
  GI50: 310 nM
  TGI: 1210 nM
[22]
  GI50: 381 nM
  TGI: 1660 nM
[23]
  GI50: 130 nM
  TGI: 315 nM
[24]
  GI50: 771 nM
  TGI: 2130 nM
[25]
  GI50: 1030 nM
  TGI: 2200 nM
[26]
  GI50: 1080 nM
  TGI: 2290 nM
[27]
  GI50: 1310 nM
  TGI: 2790 nM
[28]
  GI50: 548 nM
  TGI: 1620 nM
[29]
  GI50: 185 nM
  TGI: 368 nM
[30]
  GI50: 175 nM
  TGI: 390 nM
[31]
  GI50: 1450 nM
  TGI: 2900 nM
[32]
  GI50: 389 nM
  TGI: 1290 nM
[33]
  GI50: 225 nM
  TGI: 513 nM
[34]
  GI50: 491 nM
  TGI: 1750 nM
[35]
  GI50: 601 nM
  TGI: 1610 nM
[36]
  GI50: 21.3 nM
  TGI: > 100000 nM
[37]
  GI50: 266 nM
  TGI: 964 nM
[38]
  GI50: 704 nM
  TGI: 1940 nM
[39]
  GI50: 218 nM
  TGI: 607 nM
[40]
  GI50: 189 nM
  TGI: 396 nM
[41]
  GI50: 188 nM
  TGI: 405 nM
[42]
  GI50: 258 nM
  TGI: 760 nM
[43]
  GI50: 213 nM
  TGI: 499 nM
[44]
  GI50: 765 nM
  TGI: 3110 nM
[45]
  GI50: 936 nM
  TGI: 2290 nM
[46]
  GI50: 1560 nM
  TGI: 4450 nM
[47]
  GI50: 189 nM
  TGI: 489 nM
[48]
  GI50: 1860 nM
  TGI: 4090 nM
[49]
  GI50: 181 nM
  TGI: 377 nM
[50]
  GI50: 1580 nM
  TGI: 2970 nM
[51]
  GI50: 243 nM
  TGI: 633 nM
[52]
  GI50: 1800 nM
  TGI: 4400 nM
[53]
  GI50: 322 nM
  TGI: 1940 nM
[54]
  GI50: 247 nM
  TGI: 645 nM
[55]
  GI50: 1250 nM
  TGI: 3380 nM
[56]
  GI50: 301 nM
  TGI: 826 nM
[57]
  GI50: 1750 nM
  TGI: 5770 nM
[58]
  GI50: 639 nM
  TGI: 1880 nM
